{
  "source": "patent US6414138B1",
  "about": "“Process for producing mixtures rich in 1,6-GPS or 1,1-GPM” (Sudzucker Aktiengesellschaft, priority 1997, dated 2002)",
  "assay": "Solubility of 1,1-GPM and 1,6-GPS in water / aqueous suspension",
  "assay_type": "physicochemical",
  "details": "seed crystals mixed into concentrated aqueous solution of hydrogenated isomaltulose, about 50-65° C.",
  "method": "Since the solubility equilibrium is temperature-dependent, the concentration ratio of the two components can advantageously be preset. After the solubility equilibrium is adjusted, the 1,1-GPM and 1,6-GPS concentration in the products can be controlled by setting the rate for the temperature change.\nIn another preferred embodiment of the invention, a suspension which is formed by the addition of, for example, crystalline hydrogenated isomaltulose in water, is heated to, for example, 85° C. to completely dissolve the solute, whereafter the cooling step to crystallize the solution is combined with a seeding step. The seeding step, however, is not essential. Advantageously, powdered hydrogenated isomaltulose in crystalline form or in the form of a suspension can be used. Most advantageously, the suspension is formed in water or in an organic solvent, such as isopropanol, and a food-compatible dispersing agent acting as a solvent can be added, if necessary. […]\nThe two constituents of hydrogenated isomaltulose, i.e. 1,1-GPM and 1,6-GPS, have a different solubility in aqueous solutions (FIG. 4). […] The 1,1-GPM component, which crystallizes more readily, is concentrated in the solid fraction of the suspension, whereas the 1,6-GPS component, which crystallizes less readily, goes preferentially into solution. […]",
  "data": [
    {"smiles": "OC[C@H](O)[C@@H](O)[C@H](O)[C@H](O)CO[C@H]1O[C@H](CO)[C@@H](O)[C@H](O)[C@H]1O", "note": "[1,6-GPS, 6-0-α-D-Glucopyranosyl-D-sorbite]", "values": [
      {"measurement": "solubility (in words)", "value": "readily soluble"}
    ]},
    {"smiles": "OC[C@@H](O)[C@@H](O)[C@H](O)[C@H](O)CO[C@H]1O[C@H](CO)[C@@H](O)[C@H](O)[C@H]1O", "note": "[1,1-GPM, 1-0-α-D-Glucopyranosyl-D-mannite]", "values": [
      {"measurement": "solubility (in words)", "value": "only slightly soluble"}
    ]}
  ]
}
